Assay results taken from article PMC5874678, “Bryonolic Acid Blocks Cancer Cell Clonogenicity and Invasiveness through the Inhibition of Fatty Acid: Cholesteryl Ester Formation” (Biomedicines, 2018).

Columns and labels:
[1] = molecular target: T1, cholesterol-5,6-epoxide hydrolase (ChEH) (Rattus norvegicus, UniProt Q9JJ46+Q9Z2Z8); assay: Cholesterol epoxide hydrolase (ChEH) inhibition assay; format: biochemical; details: 150 μg rat liver microsomal proteins, 10 and 20 μM [14C]α-CE, compounds 0.01 to 1000 μM
T1 construct: from tissue; host or cells: rat liver microsomes
T1 sequence (Q9JJ46 2-230 limits assumed): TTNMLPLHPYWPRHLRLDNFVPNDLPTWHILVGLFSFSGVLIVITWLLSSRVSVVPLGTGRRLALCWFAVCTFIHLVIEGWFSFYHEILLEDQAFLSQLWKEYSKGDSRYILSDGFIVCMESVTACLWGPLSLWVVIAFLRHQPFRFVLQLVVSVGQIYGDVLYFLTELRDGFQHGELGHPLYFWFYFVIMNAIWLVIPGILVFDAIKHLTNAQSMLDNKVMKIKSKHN
T1 sequence (Q9Z2Z8 1-471): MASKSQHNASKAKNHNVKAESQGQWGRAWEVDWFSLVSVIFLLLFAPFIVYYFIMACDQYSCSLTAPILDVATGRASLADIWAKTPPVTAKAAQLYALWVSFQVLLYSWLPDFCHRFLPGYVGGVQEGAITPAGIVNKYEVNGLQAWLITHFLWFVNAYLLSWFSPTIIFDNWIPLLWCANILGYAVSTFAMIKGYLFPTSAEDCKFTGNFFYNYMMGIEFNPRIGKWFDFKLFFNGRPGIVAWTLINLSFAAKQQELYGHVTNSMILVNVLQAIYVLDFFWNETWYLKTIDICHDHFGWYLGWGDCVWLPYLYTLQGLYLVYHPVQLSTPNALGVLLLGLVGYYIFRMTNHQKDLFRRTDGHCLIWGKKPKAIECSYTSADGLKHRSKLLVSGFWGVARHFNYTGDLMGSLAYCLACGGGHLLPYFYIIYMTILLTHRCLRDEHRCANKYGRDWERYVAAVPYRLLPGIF
Experimental: Inhibition of ChEH activity was measured as described previously on a whole-cell assay using MCF-7 cells [33]. […] Cells were treated for 24 h with 0.6 μM [^14C]α-CE.
The mixtures were incubated over a period of 0 to 30 min. The tubes were placed in ice cold distilled water to stop the reaction and the addition of 1.5 mL chloroform/methanol (2:1) and reaction buffer (500 mL) followed. After vortexing, the lower phase was aspirated and the residual aqueous phase was extracted with chloroform (1.5 mL). The organic extracts were combined and dried under a gentle stream of nitrogen, followed by suspension in ethanol (60 µL).
Samples were applied to TLC plates that had been heated previously for 1 h at 100 °C and were developed using ethyl acetate. The regions corresponding to authentic CE and cholestane-3β,5α,6β-triol standards were visualized by iodine vapour. Radioactive metabolites were visualized using a Storm apparatus (GE Healthcare) and quantified by densitometry with the software ImageQuant version 5.2 (GE Healthcare).

[2] = molecular target: T2, ACAT in MCF-7 cells (Homo sapiens, UniProt P35610); assay: ACAT activity in intact MCF-7 cells; format: cell-based; details: MCF-7, 24 h, [14C]cholesterol; for IC50: read-out: IC50, inhibition of ACAT activity in intact cells
T2 construct: endogenous in cells; host or cells: MCF-7, MDA-MB-231, U-87
T2 sequence (P35610 1-550): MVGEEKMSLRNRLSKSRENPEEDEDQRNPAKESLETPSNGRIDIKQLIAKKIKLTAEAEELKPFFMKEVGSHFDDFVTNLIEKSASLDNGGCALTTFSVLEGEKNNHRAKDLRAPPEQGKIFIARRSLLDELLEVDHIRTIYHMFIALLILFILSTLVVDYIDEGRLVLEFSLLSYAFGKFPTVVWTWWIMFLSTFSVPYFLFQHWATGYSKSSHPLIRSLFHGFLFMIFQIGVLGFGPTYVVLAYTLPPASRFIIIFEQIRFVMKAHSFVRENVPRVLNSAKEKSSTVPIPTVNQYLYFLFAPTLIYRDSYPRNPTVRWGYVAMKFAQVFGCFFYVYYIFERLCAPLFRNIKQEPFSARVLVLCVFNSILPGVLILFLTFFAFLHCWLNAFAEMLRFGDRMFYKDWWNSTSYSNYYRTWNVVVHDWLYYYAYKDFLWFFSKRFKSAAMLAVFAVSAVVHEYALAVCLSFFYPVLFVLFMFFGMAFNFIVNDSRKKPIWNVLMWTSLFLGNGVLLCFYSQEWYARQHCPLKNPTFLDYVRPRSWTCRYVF
Experimental: (§1) MCF-7, MB-231, U-87 and 3T3-EA cells were plated on six-well plates (40,000 cells/well). ACAT activity in intact cells was measured as described previously. Cells were preincubated for 15 min. with solvent vehicle or increasing concentrations of BrA ranging from 1 to 200 μM in complete medium. [^14C]Cholesterol (0.2 μCi/well) was added and the cells were incubated for 24 h. At the end of the incubation, intracellular and secreted lipids in the supernatant were extracted and then separated by TLC as described previously. Free and esterified cholesterol were identified using purified ^14C commercial standards and the radioactivity of each individual lipid was quantified using a phosphor screen (Storm; GE Healthcare, Chicago, IL, USA). ACAT activity is expressed as the percentage of the ACAT activity measured in the absence of inhibitors (cells treated with solvent vehicle).
(§2) Cells were plated on 6-well plates. […]. [^14C]cholesterol (0.2 μCi/well) was added and cells were incubated for 24 h. At the end of the incubation, intracellular lipids were extracted as described in [30] and then separated by TLC as described previously. Free and esterified cholesterol were identified using purified [^14C] standards and the radioactivity associated with each individual lipid was quantified using a Phosphoscreen (Storm; Molecular Dynamics). ACAT activity is expressed as the percentage of the ACAT activity measured in the absence of inhibitors (cells treated with solvent vehicle).

[3] = molecular target: T3, ERα (Homo sapiens, UniProt P03372); assay: Oestrogen receptor competition binding assay, ERα; details: n.m. = no measurable inhibition of binding
T3 sequence (P03372 1-595): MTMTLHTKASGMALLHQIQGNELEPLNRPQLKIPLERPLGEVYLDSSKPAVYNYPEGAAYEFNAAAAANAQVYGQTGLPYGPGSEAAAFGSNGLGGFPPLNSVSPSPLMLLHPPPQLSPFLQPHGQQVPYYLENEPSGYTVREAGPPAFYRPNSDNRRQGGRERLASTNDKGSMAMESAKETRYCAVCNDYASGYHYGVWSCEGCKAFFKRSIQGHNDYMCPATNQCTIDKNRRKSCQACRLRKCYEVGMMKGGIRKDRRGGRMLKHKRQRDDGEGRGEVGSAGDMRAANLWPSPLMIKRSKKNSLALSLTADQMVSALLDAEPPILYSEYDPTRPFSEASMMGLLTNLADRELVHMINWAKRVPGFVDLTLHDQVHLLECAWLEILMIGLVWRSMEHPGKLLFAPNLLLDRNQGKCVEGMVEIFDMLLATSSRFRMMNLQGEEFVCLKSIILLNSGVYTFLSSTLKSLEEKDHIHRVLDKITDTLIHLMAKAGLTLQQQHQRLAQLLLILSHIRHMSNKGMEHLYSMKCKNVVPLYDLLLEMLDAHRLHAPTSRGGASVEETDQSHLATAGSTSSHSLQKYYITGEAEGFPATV
Experimental: (§3) Competition binding to ERα and ERβ was measured exactly as described previously.

[4] = molecular target: T4, ACAT in U-87 cells (Homo sapiens, UniProt P35610); assay: ACAT activity in intact U-87 cells; format: cell-based; details: U-87, 24 h, [14C]cholesterol; for IC50: read-out: IC50, inhibition of ACAT activity in intact cells
T4 construct: endogenous in cells; host or cells: MCF-7, MDA-MB-231, U-87
T4 sequence (P35610 1-550): T2 sequence (P35610 1-550)
Experimental: as §1, §2

[5] = molecular target: T5, ACAT in NIH-3T3-CCK2R-E151A cells (3T3-EA) (Mus musculus, UniProt Q61263); assay: ACAT activity in intact 3T3-EA cells; format: cell-based; details: 24 h, [14C]cholesterol; for IC50: read-out: IC50, inhibition of ACAT activity in intact cells
T5 construct: endogenous in cells; host or cells: NIH-3T3-CCK2R-E151A (3T3-EA)
T5 sequence (Q61263 1-540): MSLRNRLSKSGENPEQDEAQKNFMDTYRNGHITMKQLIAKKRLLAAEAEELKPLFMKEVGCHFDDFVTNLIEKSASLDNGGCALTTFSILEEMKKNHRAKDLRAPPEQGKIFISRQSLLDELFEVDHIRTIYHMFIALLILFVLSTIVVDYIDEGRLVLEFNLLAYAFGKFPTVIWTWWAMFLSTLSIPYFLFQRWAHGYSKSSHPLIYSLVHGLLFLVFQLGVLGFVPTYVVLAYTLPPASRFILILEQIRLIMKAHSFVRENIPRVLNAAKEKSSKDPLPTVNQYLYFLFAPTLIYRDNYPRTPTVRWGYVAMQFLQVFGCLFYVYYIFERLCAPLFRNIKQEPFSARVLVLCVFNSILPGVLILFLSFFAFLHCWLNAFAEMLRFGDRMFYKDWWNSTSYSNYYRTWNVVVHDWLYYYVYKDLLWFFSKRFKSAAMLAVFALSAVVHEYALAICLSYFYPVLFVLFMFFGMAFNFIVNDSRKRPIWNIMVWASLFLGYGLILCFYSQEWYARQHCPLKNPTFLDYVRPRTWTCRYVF
Experimental: as §1, §2

[6] = molecular target: ERβ (Homo sapiens, UniProt Q92731); assay: Oestrogen receptor competition binding assay, ERβ; details: n.m. = no measurable inhibition of binding
Experimental: as §3

[7] = molecular target: T6, ACAT in MB-231 cells (Homo sapiens, UniProt P35610); assay: ACAT activity in intact MB-231 cells; format: cell-based; details: MB-231, 24 h, [14C]cholesterol; for IC50: read-out: IC50, inhibition of ACAT activity in intact cells
T6 construct: endogenous in cells; host or cells: MCF-7, MDA-MB-231, U-87
T6 sequence (P35610 1-550): T2 sequence (P35610 1-550)
Experimental: as §1, §2

[8] = test system: MCF-7, MB-231, U-87 and 3T3-EA cells; assay: Clonogenic assay (colony formation); format: cell-based; details: Homo sapiens, MCF7, four tested cell lines, vs solvent vehicle, read-out: inhibition of cancer cell colony formation
Experimental: Following trypsinization of the cells, they were plated in tissue culture plates (60 mm) at a density of 500–1000 per plate. After adherence for 24 h, the drugs were added at the chosen final concentrations from freshly prepared stock solutions. The plates were washed twice with serum-free medium after 24 to 72 h incubation. Fresh medium was added and the plates were incubated at 37 °C until the colonies became visible. After incubation, the plates were washed with PBS and stained using Coomassie brilliant blue. The stained colonies were counted and are reported as the percentage of control cells (ethanol treated (0.01% (v/v)).

[9] = test system: MCF-7, MB-231, U-87 and 3T3-EA cells; assay: Cell invasion assay (Matrigel-coated filters); format: cell-based
Experimental: Cells were added to six-well plates (40,000 cells/well) containing Dulbecco's Modified Eagle Medium (DMEM) and 10% FCS. Following incubation for 24 h, the cells were treated for a further 24 h in the presence of the test compounds, or else vehicle in DMEM and 2% Fetal Calf Serum (FCS). The cells were harvested and counted. Cells (20,000) were placed in serum-free DMEM on the surface of Nunc filters (8 mm diameter, […]; Nalgen Nunc International, Rochester, NY, USA). The filters were coated with growth factor-reduced Matrigel ([…] Matrigel; BD Biosciences, San Jose, CA, USA) in the presence of the test compounds or else vehicle. The base of the filter was filled with 10% FCS/DMEM. Following incubation for 48 h at 37 °C, cells which had invaded the Matrigel and attached themselves to the base of the filter were fixed, stained with Giemsa stain and counted microscopically.

ERβ, sequence (Q92731 whole entry, species assumed): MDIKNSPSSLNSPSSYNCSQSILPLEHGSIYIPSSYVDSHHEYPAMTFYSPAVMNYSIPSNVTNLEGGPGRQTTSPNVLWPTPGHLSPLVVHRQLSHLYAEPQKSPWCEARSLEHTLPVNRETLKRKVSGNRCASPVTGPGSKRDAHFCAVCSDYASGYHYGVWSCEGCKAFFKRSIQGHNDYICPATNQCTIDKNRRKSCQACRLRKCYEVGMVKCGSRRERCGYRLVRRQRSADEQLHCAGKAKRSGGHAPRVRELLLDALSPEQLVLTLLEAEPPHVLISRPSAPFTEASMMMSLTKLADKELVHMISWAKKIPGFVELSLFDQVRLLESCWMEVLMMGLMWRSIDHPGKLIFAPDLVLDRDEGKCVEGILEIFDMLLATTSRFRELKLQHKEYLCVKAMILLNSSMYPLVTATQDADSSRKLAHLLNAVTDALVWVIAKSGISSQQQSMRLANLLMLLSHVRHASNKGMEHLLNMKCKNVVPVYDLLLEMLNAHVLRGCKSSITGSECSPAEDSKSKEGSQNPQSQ

SMILES	IC50, ChEH inhibition [1]	IC50 [2]	IC50, competition with radiolabelled 17β-estradiol binding to ERα [3]	IC50 [4]	IC50 [5]	IC50, competition with radiolabelled 17β-estradiol binding to ERβ [6]	IC50 [7]	IC50, ChEH inhibition ([1]; listed as BrA)	IC50, inhibition of ACAT activity in intact cells [2]	IC50, inhibition of ACAT activity in intact cells [4]	IC50, inhibition of ACAT activity in intact cells [5]	IC50, inhibition of ACAT activity in intact cells [7]	inhibition at 25 µM [8]	inhibition of cell invasiveness ([9]; 25 μM, 24 h pre-treatment, 48 h invasion, four cell lines)	effect of added cholesteryl oleate on inhibition of cell invasiveness ([9]; cholesteryl oleate 4 µg/mL, MB-231 and U87 cells)
C[C@]12CC[C@@H]3c4ccc(O)cc4CC[C@H]3[C@@H]1CC[C@@H]2O [E2, 17β-estradiol]	n.m.	–	–	–	–	–	–	–	–	–	–	–	–	–	–
CCCCCCCCCC[Si](C)(C)CCC(=O)NC(Cc1ccc(C)cc1)c1ccccc1 (centres unmarked) [sah 58-035, 3-[decyldimethylsilyl]-N-[2-(4-methylphenyl)-1-phenylethyl]-propanamide]	–	5.1 ± 0.5 µM	–	9.2 ± 2.2 µM	7.4 ± 1.8 µM	–	9.1 ± 1.4 µM	–	–	–	–	–	–	–	–

Now from value to compound, other results behind:

IC50, ChEH inhibition [1]	IC50 [2]	IC50, competition with radiolabelled 17β-estradiol binding to ERα [3]	IC50 [4]	IC50 [5]	IC50, competition with radiolabelled 17β-estradiol binding to ERβ [6]	IC50 [7]	IC50, ChEH inhibition ([1]; listed as BrA)	IC50, inhibition of ACAT activity in intact cells [2]	IC50, inhibition of ACAT activity in intact cells [4]	IC50, inhibition of ACAT activity in intact cells [5]	IC50, inhibition of ACAT activity in intact cells [7]	SMILES	inhibition at 25 µM [8]	inhibition of cell invasiveness ([9]; 25 μM, 24 h pre-treatment, 48 h invasion, four cell lines)	effect of added cholesteryl oleate on inhibition of cell invasiveness ([9]; cholesteryl oleate 4 µg/mL, MB-231 and U87 cells)
n.m.	53.7 ± 4.2 µM	n.m.	61.4 ± 9.4 µM	60.2 ± 8 µM	n.m.	58.3 ± 8.1 µM	–	–	–	–	–	C=C(C)[C@@H]1CC[C@]2(C(=O)O)CC[C@]3(C)[C@H](CC[C@@H]4[C@@]5(C)CC[C@H](O)C(C)(C)[C@@H]5CC[C@]43C)[C@@H]12 [betulinic acid]	–	–	–
n.m.	22.5 ± 3.7 µM	n.m.	17.5 ± 4.8 µM	19.4 ± 7.6 µM	n.m.	29.5 ± 5.5 µM	does not inhibit ChEH	–	–	–	–	CC1(C)[C@@H](O)CC[C@]2(C)C3=C(CC[C@@H]12)[C@@]1(C)CC[C@@]2(C)CC[C@@](C)(C(=O)O)C[C@H]2[C@]1(C)CC3 [bryonolic acid, D-C friedoolean-8-en-3β-ol-29 oic acid]	> 50%	observable in the four cell lines	blocked the inhibition of cell invasiveness triggered by BrA
n.m.	–	–	–	–	n.m.	–	–	n.m.	n.m.	n.m	n.m.	C[C@H]1[C@H](C)CC[C@]2(C(=O)O)CC[C@]3(C)C(=CC[C@@H]4[C@@]5(C)CC[C@H](O)C(C)(C)[C@@H]5CC[C@]43C)[C@H]12 [ursolic acid]	–	–	–
